Results reported in ChEMBL document CHEMBL1201862, “PubChem BioAssay data set” (2004).
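1) Cells in 96-well plates. 2) Compound, 48 h, 5 concentrations. 3) Linear interpolation between surrounding doses. 4) Unreached endpoint = highest concentration. GI50 is the concentration that inhibits growth by half.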 Calls of active or inactive are those of the source. No stated cut-off is given here; in the data, active = GI50 up to about 1.1 µM and inactive = higher.

Columns and labels:
Assay in all cases: DTP human tumour cell line panel, 48 h
786-0 = tested on: 786-0
A498 = tested on: A498
A549 = tested on: A549
ACHN = tested on: ACHN
BT-549 = tested on: BT-549
CAKI-1 = tested on: CAKI-1
CCRF-CEM = tested on: CCRF-CEM
COLO 205 = tested on: COLO 205
DU-145 = tested on: DU-145
EKVX = tested on: EKVX
HCC 2998 = tested on: HCC 2998
HCT-116 = tested on: HCT-116
HCT-15 = tested on: HCT-15
HL-60 = tested on: HL-60
HOP-62 = tested on: HOP-62
HT-29 = tested on: HT-29
Hs-578T = tested on: Hs-578T
IGROV-1 = tested on: IGROV-1
K562 = tested on: K562
KM12 = tested on: KM12
LOX IMVI = tested on: LOX IMVI
M14 = tested on: M14
MCF7 = tested on: MCF7
MDA-MB-231 = tested on: MDA-MB-231
MDA-MB-435 = tested on: MDA-MB-435
MDA-N = tested on: MDA-N
MOLT-4 = tested on: MOLT-4
Malme-3M = tested on: Malme-3M
NCI-H226 = tested on: NCI-H226
NCI-H23 = tested on: NCI-H23
NCI-H460 = tested on: NCI-H460
OVCAR-3 = tested on: OVCAR-3
OVCAR-4 = tested on: OVCAR-4
OVCAR-5 = tested on: OVCAR-5
OVCAR-8 = tested on: OVCAR-8
PC-3 = tested on: PC-3
RPMI-8226 = tested on: RPMI-8226
RXF 393 = tested on: RXF 393
SF-268 = tested on: SF-268
SF-295 = tested on: SF-295
SF-539 = tested on: SF-539
SK-MEL-28 = tested on: SK-MEL-28
SK-MEL-2 = tested on: SK-MEL-2
SK-MEL-5 = tested on: SK-MEL-5
SN12C = tested on: SN12C
SNB-19 = tested on: SNB-19
SNB-75 = tested on: SNB-75
SR = tested on: SR
SW-620 = tested on: SW-620
T47D = tested on: T47D
TK-10 = tested on: TK-10
U-251 = tested on: U-251
UACC-257 = tested on: UACC-257
UACC-62 = tested on: UACC-62
UO-31 = tested on: UO-31
HOP-92 = tested on: HOP-92
NCI-H522 = tested on: NCI-H522
NCI/ADR-RES = tested on: NCI/ADR-RES
SK-OV-3 = tested on: SK-OV-3

Q: What does the source list for `Cc1ncc([N+](=O)[O-])n1CCNC(=O)CCCn1ccnc1[N+](=O)[O-]`?
A: GI50 (786-0): > 100 µM (inactive); GI50 (A498): > 100 µM (inactive); GI50 (A549): > 100 µM (inactive); GI50 (ACHN): > 100 µM (inactive); GI50 (BT-549): > 100 µM (inactive); GI50 (CAKI-1): > 100 µM (inactive); GI50 (CCRF-CEM): > 100 µM (inactive); GI50 (COLO 205): > 100 µM (inactive); GI50 (DU-145): > 100 µM (inactive); GI50 (EKVX): > 100 µM (inactive); GI50 (HCC 2998): > 100 µM (inactive); GI50 (HCT-116): > 100 µM (inactive); GI50 (HCT-15): > 100 µM; GI50 (HL-60): > 100 µM (inactive); GI50 (HOP-62): > 100 µM (inactive); GI50 (HT-29): > 100 µM (inactive); GI50 (Hs-578T): > 100 µM (inactive); GI50 (IGROV-1): > 100 µM (inactive); GI50 (K562): > 100 µM (inactive); GI50 (KM12): > 100 µM (inactive); GI50 (LOX IMVI): > 100 µM (inactive); GI50 (M14): > 100 µM (inactive); GI50 (MCF7): > 100 µM (inactive); GI50 (MDA-MB-231): > 100 µM (inactive); GI50 (MDA-MB-435): > 100 µM (inactive); GI50 (MDA-N): > 100 µM (inactive); GI50 (MOLT-4): > 100 µM (inactive); GI50 (Malme-3M): > 100 µM (inactive); GI50 (NCI-H226): > 100 µM (inactive); GI50 (NCI-H23): > 100 µM (inactive); GI50 (NCI-H460): > 100 µM (inactive); GI50 (OVCAR-3): > 100 µM (inactive); GI50 (OVCAR-4): > 100 µM (inactive); GI50 (OVCAR-5): > 100 µM (inactive); GI50 (OVCAR-8): > 100 µM (inactive); GI50 (PC-3): > 100 µM (inactive); GI50 (RPMI-8226): > 100 µM (inactive); GI50 (RXF 393): > 100 µM (inactive); GI50 (SF-268): > 100 µM (inactive); GI50 (SF-295): > 100 µM (inactive); GI50 (SF-539): > 100 µM (inactive); GI50 (SK-MEL-28): > 100 µM (inactive); GI50 (SK-MEL-2): > 100 µM (inactive); GI50 (SK-MEL-5): > 100 µM (inactive); GI50 (SN12C): > 100 µM (inactive); GI50 (SNB-19): > 100 µM (inactive); GI50 (SNB-75): > 100 µM (inactive); GI50 (SR): > 100 µM (inactive); GI50 (SW-620): > 100 µM (inactive); GI50 (T47D): > 100 µM (inactive); GI50 (TK-10): > 100 µM (inactive); GI50 (U-251): > 100 µM (inactive); GI50 (UACC-257): > 100 µM (inactive); GI50 (UACC-62): > 100 µM (inactive); GI50 (UO-31): > 100 µM (inactive)

Q: What does the source list for `Cc1cc(C)n(C(=C(C(Cl)=C(Cl)Cl)[N+](=O)[O-])n2nc(C)cc2C)n1`?
A: GI50 (A498): 2.86 µM (inactive); GI50 (A549): 3.5 µM (inactive); GI50 (ACHN): 3.21 µM (inactive); GI50 (BT-549): 4.56 µM (inactive); GI50 (CAKI-1): 3.23 µM (inactive); GI50 (CCRF-CEM): 2.16 µM (inactive); GI50 (COLO 205): 2.08 µM (inactive); GI50 (DU-145): 4.12 µM (inactive); GI50 (EKVX): 2.58 µM (inactive); GI50 (HCC 2998): 3.19 µM (inactive); GI50 (HCT-116): 3.65 µM (inactive); GI50 (HCT-15): 3.2 µM; GI50 (HL-60): 1.91 µM (inactive); GI50 (HOP-62): 5.04 µM (inactive); GI50 (HOP-92): 2.72 µM (inactive); GI50 (HT-29): 3.5 µM (inactive); GI50 (Hs-578T): 4.66 µM (inactive); GI50 (IGROV-1): 4.03 µM (inactive); GI50 (K562): 2.02 µM (inactive); GI50 (KM12): 3.48 µM (inactive); GI50 (LOX IMVI): 2.1 µM (inactive); GI50 (M14): 3.8 µM (inactive); GI50 (MCF7): 2.55 µM (inactive); GI50 (MDA-MB-231): 7.41 µM (inactive); GI50 (MDA-MB-435): 2.19 µM (inactive); GI50 (MDA-N): 4.06 µM (inactive); GI50 (MOLT-4): 2.37 µM (inactive); GI50 (Malme-3M): 2.98 µM (inactive); GI50 (NCI-H226): 5.66 µM (inactive); GI50 (NCI-H23): 3.23 µM (inactive); GI50 (NCI-H460): 3.52 µM (inactive); GI50 (NCI-H522): 2.73 µM (inactive); GI50 (NCI/ADR-RES): 3.78 µM (inactive); GI50 (OVCAR-3): 3.08 µM (inactive); GI50 (OVCAR-4): 3.59 µM (inactive); GI50 (OVCAR-5): 7.93 µM (inactive); GI50 (OVCAR-8): 3.06 µM (inactive); GI50 (PC-3): 4.43 µM (inactive); GI50 (RXF 393): 3.79 µM (inactive); GI50 (SF-268): 4.23 µM (inactive); GI50 (SF-295): 3.85 µM (inactive); GI50 (SF-539): 4.59 µM (inactive); GI50 (SK-MEL-28): 6.17 µM (inactive); GI50 (SK-MEL-2): 1.37 µM (inactive); GI50 (SK-MEL-5): 2.13 µM (inactive); GI50 (SK-OV-3): 3.29 µM (inactive); GI50 (SN12C): 3.98 µM (inactive); GI50 (SNB-19): 4.81 µM (inactive); GI50 (SNB-75): 6.25 µM (inactive); GI50 (SW-620): 3.7 µM (inactive); GI50 (T47D): 4.05 µM (inactive); GI50 (TK-10): 3.39 µM (inactive); GI50 (U-251): 3.44 µM (inactive); GI50 (UACC-257): 3.24 µM (inactive); GI50 (UACC-62): 4.06 µM (inactive); GI50 (UO-31): 3.18 µM (inactive)

Q: Which GI50 (786-0) does the source give for `Oc1[nH]c(Nc2cc(Cl)cc(Cl)c2)nc2ncnc1-2` here?
A: > 75 µM (inactive)

Q: And the GI50 (A549)?
A: > 75 µM (inactive)

Q: And the GI50 (ACHN)?
A: > 75 µM (inactive)

Q: What about the GI50 (BT-549) of the same molecule?
A: > 75 µM (inactive)

Q: What about the GI50 (CAKI-1) of the same molecule?
A: > 75 µM (inactive)

Q: What about the GI50 (CCRF-CEM) of the same molecule?
A: > 75 µM (inactive)

Q: And the GI50 (COLO 205)?
A: > 75 µM (inactive)

Q: And the GI50 (DU-145)?
A: > 75 µM (inactive)

Q: And the GI50 (EKVX)?
A: > 75 µM (inactive)

Q: What about the GI50 (HCC 2998) of the same molecule?
A: > 75 µM (inactive)

Q: And the GI50 (HCT-116)?
A: > 75 µM (inactive)

Q: And the GI50 (HCT-15)?
A: > 75 µM

Q: And the GI50 (HOP-62)?
A: > 75 µM (inactive)

Q: What about the GI50 (HOP-92) of the same molecule?
A: > 75 µM (inactive)

Q: What about the GI50 (HT-29) of the same molecule?
A: > 75 µM (inactive)

Q: What about the GI50 (Hs-578T) of the same molecule?
A: 17.9 µM (inactive)

Q: What about the GI50 (IGROV-1) of the same molecule?
A: > 75 µM (inactive)

Q: And the GI50 (K562)?
A: > 75 µM (inactive)

Q: And the GI50 (KM12)?
A: > 75 µM (inactive)

Q: And the GI50 (LOX IMVI)?
A: > 75 µM (inactive)

Q: And the GI50 (M14)?
A: > 75 µM (inactive)

Q: And the GI50 (MCF7)?
A: > 75 µM (inactive)

Q: What about the GI50 (MDA-MB-231) of the same molecule?
A: > 75 µM (inactive)

Q: And the GI50 (MDA-MB-435)?
A: > 75 µM (inactive)

Q: What about the GI50 (MDA-N) of the same molecule?
A: > 75 µM (inactive)

Q: What about the GI50 (MOLT-4) of the same molecule?
A: > 75 µM (inactive)

Q: What about the GI50 (Malme-3M) of the same molecule?
A: > 75 µM (inactive)

Q: What about the GI50 (NCI-H226) of the same molecule?
A: > 75 µM (inactive)

Q: And the GI50 (NCI-H23)?
A: > 75 µM (inactive)

Q: And the GI50 (NCI-H460)?
A: > 75 µM (inactive)

Q: And the GI50 (NCI/ADR-RES)?
A: > 75 µM (inactive)

Q: What about the GI50 (OVCAR-3) of the same molecule?
A: > 75 µM (inactive)

Q: What about the GI50 (OVCAR-4) of the same molecule?
A: > 75 µM (inactive)

Q: What about the GI50 (OVCAR-5) of the same molecule?
A: > 75 µM (inactive)

Q: And the GI50 (OVCAR-8)?
A: > 75 µM (inactive)

Q: And the GI50 (PC-3)?
A: > 75 µM (inactive)

Q: What about the GI50 (RPMI-8226) of the same molecule?
A: > 75 µM (inactive)

Q: And the GI50 (RXF 393)?
A: > 75 µM (inactive)

Q: And the GI50 (SF-268)?
A: > 75 µM (inactive)

Q: What about the GI50 (SF-295) of the same molecule?
A: > 75 µM (inactive)

Q: What about the GI50 (SF-539) of the same molecule?
A: > 75 µM (inactive)

Q: What about the GI50 (SK-MEL-2) of the same molecule?
A: > 75 µM (inactive)

Q: What about the GI50 (SK-MEL-5) of the same molecule?
A: > 75 µM (inactive)

Q: What about the GI50 (SK-OV-3) of the same molecule?
A: > 75 µM (inactive)

Q: And the GI50 (SN12C)?
A: > 75 µM (inactive)

Q: And the GI50 (SNB-19)?
A: > 75 µM (inactive)

Q: What about the GI50 (SNB-75) of the same molecule?
A: > 75 µM (inactive)

Q: And the GI50 (SW-620)?
A: > 75 µM (inactive)

Q: What about the GI50 (T47D) of the same molecule?
A: > 75 µM (inactive)

Q: What about the GI50 (TK-10) of the same molecule?
A: > 75 µM (inactive)

Q: And the GI50 (U-251)?
A: > 75 µM (inactive)

Q: What about the GI50 (UACC-257) of the same molecule?
A: > 75 µM (inactive)

Q: What about the GI50 (UACC-62) of the same molecule?
A: > 75 µM (inactive)

Q: What about the GI50 (UO-31) of the same molecule?
A: > 75 µM (inactive)
